Source: article PMC10709319, “Glycosyltransferase 8 domain-containing protein 1 (GLT8D1) is a UDP-dependent galactosyltransferase” (Scientific Reports, 2023)

Legend:
[1] = target: T1, GLT8D1 (recombinant secretory glycosyltransferase 8 domain-containing protein 1) (Homo sapiens, UniProt Q68CQ7); assay: intrinsic tryptophan fluorescence DSF (nanoDSF); type: binding; conditions: 0.1 mM ligand, 1 mM MnCl2, 50 mM Tris-HCl pH 7.5; shift relative to Mn2+ alone
T1 construct: lumenal catalytic domain 52-371; GFP fusion kept; secreted from HEK293-F cells; N-glycosylated; expected mass 67,624 Da
T1 sequence (Q68CQ7 52-371): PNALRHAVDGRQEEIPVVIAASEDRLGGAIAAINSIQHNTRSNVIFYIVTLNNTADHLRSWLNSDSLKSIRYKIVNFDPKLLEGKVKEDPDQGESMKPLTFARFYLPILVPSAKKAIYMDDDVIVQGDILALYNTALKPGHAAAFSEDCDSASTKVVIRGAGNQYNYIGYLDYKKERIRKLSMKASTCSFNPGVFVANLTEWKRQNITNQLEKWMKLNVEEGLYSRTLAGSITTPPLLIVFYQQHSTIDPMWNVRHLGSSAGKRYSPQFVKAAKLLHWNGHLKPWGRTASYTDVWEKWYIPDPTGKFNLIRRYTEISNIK

[2] = target: T1, GLT8D1 (recombinant secretory glycosyltransferase 8 domain-containing protein 1); assay: UDP-Glo transferase assay; product by LC-MS/MS; type: biochemical; conditions: acceptor, 20 mM; UDP-Gal donor, 5 mM MnCl2, 50 mM Tris-HCl pH 7.5

ΔTm [1] | Structure (SMILES) | UDP-Glo transferase assay; product by LC-MS/MS [2]
+ 1.3 °C | Nc1ccn([C@@H]2O[C@H](COP(=O)(O)O)[C@@H](O)[C@H]2O)c(=O)n1 [CMP] | 
+ 7.7 °C | Nc1nc2c(ncn2[C@@H]2O[C@H](COP(=O)(O)OP(=O)(O)O)[C@@H](O)[C@H]2O)c(=O)[nH]1 [GDP] | 
 | CC(=O)N[C@H]1C(O)O[C@H](CO)[C@H](O)[C@@H]1O (stereo partly drawn) [GalNAc] | With UDP-Gal as donor some transferase reaction was detected towards GalNAc and GlcNAc
 | CC(=O)N[C@H]1C(O)O[C@H](CO)[C@@H](O)[C@@H]1O (stereo partly drawn) [GlcNAc] | With UDP-Gal as donor some transferase reaction was detected towards GalNAc and GlcNAc
~ 2 °C | CC(=O)N[C@H]1[C@@H](OP(=O)(O)OP(=O)(O)OC[C@H]2O[C@@H](n3ccc(=O)[nH]c3=O)[C@H](O)[C@@H]2O)O[C@H](CO)[C@H](O)[C@@H]1O [UDP-GalNAc] | 
+ 4.9 °C | O=C(O)[C@H]1O[C@H](OP(=O)(O)OP(=O)(O)OC[C@H]2O[C@@H](n3ccc(=O)[nH]c3=O)[C@H](O)[C@@H]2O)[C@H](O)[C@@H](O)[C@@H]1O [UDP-GlcA] | 
~ 2 °C | CC(=O)N[C@H]1[C@@H](OP(=O)(O)OP(=O)(O)OC[C@H]2O[C@@H](n3ccc(=O)[nH]c3=O)[C@H](O)[C@@H]2O)O[C@H](CO)[C@@H](O)[C@@H]1O [UDP-GlcNAc] | 
~ 2 °C | O=c1ccn([C@@H]2O[C@H](COP(=O)(O)OP(=O)(O)O[C@H]3OC[C@@H](O)[C@H](O)[C@H]3O)[C@@H](O)[C@H]2O)c(=O)[nH]1 [UDP-Xyl] | 
+ 11.2 °C | O=c1ccn([C@@H]2O[C@H](COP(=O)(O)OP(=O)(O)O)[C@@H](O)[C@H]2O)c(=O)[nH]1 [UDP] | 
